Key:
strain MNH05026 = assay: Antibiotic sensitivity test, disk diffusion method; format: cell-based, Megasphaera sp.
Protocol: (§1) Antibiotic sensitivity tests of the strains MNH05026, MNH22004, and MNH27256: Antibiotic sensitivity tests were carried out on the strains MNH05026, MNH22004, and MNH27256 by a disk diffusion method.

strain MNH22004 = assay: Antibiotic sensitivity test, disk diffusion method; format: cell-based, Megasphaera sp.
Protocol: as §1

strain MNH27256 = assay: Antibiotic sensitivity test, disk diffusion method; format: cell-based, Megasphaera sp.
Protocol: as §1

[1] = tested on: mice with NAFLD/NASH induced by a high-fat, high-carbohydrate, and high-cholesterol diet; assay: NAFLD/NASH mouse model (high-fat, high-carbohydrate, high-cholesterol diet), strains combined with Semaglutide (Example 9); format: in vivo, C57BL/6J mice
Protocol: 3) Controls: PBS-Cys containing 25% glycerol PBS-Cys was used as a negative control; and Semaglutide was used as a positive control.
Administration was initiated after the grouping (D1). The negative control group was given the negative control (PBS-Cys) by gavage, 0.2 mL/mouse, twice a day; the positive control group was given Semaglutide by subcutaneous injection, at a dose of 30 nmol/kg, once every 3 days; and the combined treatment group was given Semaglutide (at a dose and frequency of use the same as those in the positive control group) and the corresponding bacterial solution (0.2 mL/mouse, twice a day) by gavage. The experimental period was 60 days. […] During the experiment, one general clinical observation was conducted after the end of each dosing. The animals were weighed twice a week during the dosing, and before dissection at the experimental endpoint. The endpoint of this experiment was the day following the end of dosing (D61). The animals were dissected and sampled according to the protocol at the experimental endpoint, and the data were summarized to analyze the results. […] Statistical analysis was performed using One-Way ANOVA with Dunnett's multiple comparison test.
Relevant experiments were conducted for the strains MNH05026, MNH22004, and MNH27256 using the methods as described in 1) to 4) above.

## CC1(C)S[C@@H]2[C@H](NC(=O)[C@H](N)c3ccccc3)C(=O)N2[C@H]1C(=O)O [Ampicillin]
Strain MNH05026
  Sensitivity or resistance of strain MNH05026 to the antibiotic: sensitive
Strain MNH22004
  Sensitivity or resistance of strain MNH22004 to the antibiotic: resistant
Strain MNH27256
  Sensitivity or resistance of strain MNH27256 to the antibiotic: resistant

## CO/N=C(\C(=O)N[C@@H]1C(=O)N2C(C(=O)O)=C(CSc3nc(=O)c(=O)[nH]n3C)CS[C@H]12)c1csc(N)n1 [Ceftriaxone]
Strain MNH05026
  Sensitivity or resistance of strain MNH05026 to the antibiotic: sensitive
Strain MNH22004
  Sensitivity or resistance of strain MNH22004 to the antibiotic: sensitive
Strain MNH27256
  Sensitivity or resistance of strain MNH27256 to the antibiotic: resistant

## O=C(N[C@H](CO)[C@H](O)c1ccc([N+](=O)[O-])cc1)C(Cl)Cl [Chloramphenicol]
Strain MNH05026
  Sensitivity or resistance of strain MNH05026 to the antibiotic: sensitive
Strain MNH22004
  Sensitivity or resistance of strain MNH22004 to the antibiotic: sensitive
Strain MNH27256
  Sensitivity or resistance of strain MNH27256 to the antibiotic: sensitive

## O=C(O)c1cn(C2CC2)c2cc(N3CCNCC3)c(F)cc2c1=O [Ciprofloxacin]
Strain MNH05026
  Sensitivity or resistance of strain MNH05026 to the antibiotic: sensitive
Strain MNH22004
  Sensitivity or resistance of strain MNH22004 to the antibiotic: sensitive
Strain MNH27256
  Sensitivity or resistance of strain MNH27256 to the antibiotic: sensitive

## CC[C@H]1OC(=O)[C@H](C)[C@@H](O[C@H]2C[C@@](C)(OC)[C@@H](O)[C@H](C)O2)[C@H](C)[C@@H](O[C@@H]2O[C@H](C)C[C@H](N(C)C)[C@H]2O)[C@](C)(O)C[C@@H](C)C(=O)[C@H](C)[C@@H](O)[C@]1(C)O [Erythromycin]
Strain MNH05026
  Sensitivity or resistance of strain MNH05026 to the antibiotic: sensitive
Strain MNH22004
  Sensitivity or resistance of strain MNH22004 to the antibiotic: sensitive
Strain MNH27256
  Sensitivity or resistance of strain MNH27256 to the antibiotic: sensitive

## CCC[C@@H]1C[C@@H](C(=O)N[C@@H]([C@H]2O[C@H](SC)[C@H](O)[C@@H](O)[C@H]2O)[C@@H](C)O)N(C)C1 [Lincomycin]
Strain MNH05026
  Sensitivity or resistance of strain MNH05026 to the antibiotic: sensitive
Strain MNH22004
  Sensitivity or resistance of strain MNH22004 to the antibiotic: sensitive
Strain MNH27256
  Sensitivity or resistance of strain MNH27256 to the antibiotic: sensitive

## Gentamicin
Strain MNH05026
  Sensitivity or resistance of strain MNH05026 to the antibiotic: sensitive
Strain MNH22004
  Diameter of inhibition zone by MNH22004: 9.00 mm
  Sensitivity or resistance of strain MNH22004 to the antibiotic: sensitive
Strain MNH27256
  Sensitivity or resistance of strain MNH27256 to the antibiotic: sensitive

## Penicillin
Strain MNH05026
  Sensitivity or resistance of strain MNH05026 to the antibiotic: sensitive
Strain MNH22004
  Diameter of inhibition zone by MNH22004: 0 mm
  Sensitivity or resistance of strain MNH22004 to the antibiotic: resistant
Strain MNH27256
  Diameter of inhibition zone by MNH27256: 0 mm
  Sensitivity or resistance of strain MNH27256 to the antibiotic: resistant

## Semaglutide
[1]; Day 30 of oral glucose tolerance test
  fasting blood glucose: no significant effect
[1]; day 1, in g (unit assumed)
  body weight, 1 d: 45.97
[1]; day 33, in g (unit assumed)
  body weight, 33 d: 36.18
[1]; day 33 of intervention
  weight gain value: −21.30%
[1]; day 36, in g (unit assumed)
  body weight, 36 d: 35.94
[1]; day 41, in g (unit assumed)
  body weight, 41 d: 35.98
[1]; day 44, in g (unit assumed)
  body weight, 44 d: 36.34
[1]; day 48, in g (unit assumed)
  body weight, 48 d: 37.02
[1]; day 51, in g (unit assumed)
  body weight, 51 d: 37.26
[1]; day 54, in g (unit assumed)
  body weight, 54 d: 36.84
[1]; day 58, in g (unit assumed)
  body weight, 58 d: 38.09
[1]; day 60, in g (unit assumed)
  body weight, 60 d: 36.67

## Trimethoprim-sulfamethoxazole
Strain MNH05026
  Sensitivity or resistance of strain MNH05026 to the antibiotic: sensitive
Strain MNH22004
  Sensitivity or resistance of strain MNH22004 to the antibiotic: sensitive
Strain MNH27256
  Sensitivity or resistance of strain MNH27256 to the antibiotic: sensitive

Reference: patent US20250332201A1, “PHARMACEUTICAL COMPOSITION, MEGASPHAERA, AND USE THEREOF” (MOON (GUANGZHOU) BIOTECH CO., LTD., priority 2022, published 2025)
